Results on twelve compounds are retold here after ChEMBL document CHEMBL5096168, “An insight on medicinal aspects of novel HIV-1 capsid protein inhibitors” (Eur J Med Chem, 2021).

Usually pEC50 stands for the negative decadic logarithm of the EC50, by convention in mol/L. For orientation: pIC50 means −log10 of the IC50, conventionally taken in molar units. As a reminder, the half-life is the time in which the quantity being followed falls by half. Broadly, the CC50 is the concentration that lowers cell viability or growth by half.

In data set [1] the test system is Human immunodeficiency virus 1. Put plainly: Antiviral activity against HIV 1 NL4-3 infected in human MT2 cells assessed as inhibition of replication by XTT assay. Particulars: Human immunodeficiency virus 1, NL4-3, MT2. The format is functional, organism-based. Background: Tetrazolium dyes change colour on reduction, which living cells bring about.
Data set [2] has as its system Human immunodeficiency virus 1. Nature of the data set: Antiviral activity against recombinant HIV 1 expressing luciferase and envelope glycoprotein of HIV-1 YU-2 infected in Cf2Th-CCR5 cells assessed as inhibition of viral infection by measuring luciferase activity. It is filed as functional, organism-based. Particulars: Human immunodeficiency virus 1, Cf2Th-CCR5.

A short description of data set [3]: Modulation of capsid disassembly in HIV 1 NL4-3 infected in human C8166 cells expressing LTR-luciferase reporter gene assessed as inhibition of viral protein disassembly. It is filed as functional, cell-based. Particulars: Human immunodeficiency virus 1, NL4-3, C8166. For orientation: In a reporter assay the amount or activity of a reporter protein is the signal.

Data set [4] concerns Human immunodeficiency virus 1. Nature of the data set: Antiviral activity against HIV 1 NL4-3 infected in human C8166 cells expressing LTR-luciferase reporter gene assessed as inhibition of viral replication pretreated with virus for 1.5 hrs followed by compound addition and measured after 3 days. It is filed as functional, organism-based. Particulars: Human immunodeficiency virus 1, NL4-3, C8166.

Data set [5] deals with Human immunodeficiency virus 1. Put plainly: Antiviral activity against HIV 1 infected in human SUP-T1 cells assessed as inhibition of viral replication by measuring luciferase activity after 72 hrs by steady glo reagent based luminescence assay. It is filed as functional, organism-based. Particulars: Human immunodeficiency virus 1, SUP-T1, 72 h.
Data set [6] deals with Human immunodeficiency virus 1. Nature of the data set: Antiviral activity against HIV 1 in human C8166 cells expressing LTR-luciferase reporter gene assessed as inhibition of viral replication incubated for 72 hrs by multiple-cycle viral replication assay. The settings on record: Human immunodeficiency virus 1, C8166, 72 h. It is filed as functional, organism-based.
The test system of data set [7] is Human immunodeficiency virus 1. Nature of the data set: Antiviral activity against HIV 1 NL4-3. It is filed as functional, organism-based. The settings on record: Human immunodeficiency virus 1, NL4-3.
Data set [8] has as its system Human immunodeficiency virus 1. Nature of the data set: Antiviral activity against HIV 1 NL4-3 infected in […] MT2 cells assessed as reduction in luciferase activity incubated for 4 to 5 days. It is filed as functional, organism-based. The settings on record: Human immunodeficiency virus 1, NL4-3, MT2.
In data set [9] the test system is Human immunodeficiency virus 2. Nature of the data set: Antiviral activity against HIV 2. The format is functional, organism-based.
The nature of data set [10]: Metabolic stability in C57Bl/6 mouse liver microsomes assessed as half life by LC-MS/MS analysis. It is filed as ADME, Microsome. On the technique in general: Liver microsomes are a subcellular fraction often used to study metabolism.
Data set [11] concerns Human immunodeficiency virus 1. Nature of the data set: Antiviral activity against HIV 1. It is filed as functional, organism-based.
Data set [12] has as its system Human immunodeficiency virus 1. Put plainly: Antiviral activity against HIV 1 infected in human TZM-bl cells by MTT assay. The format is functional, organism-based. The settings on record: Human immunodeficiency virus 1, TZM-bl.
A further data set has as its system TZM. Nature of the data set: Cytotoxicity against human TZM-bl cells assessed as reduction in cell viability incubated for 1 day by CytoTox-Glo stain based assay. Particulars: 24 h. The format is functional.
The subject of data set [13] is Human immunodeficiency virus 1. Put plainly: Antiviral activity against HIV 1 infected in human PBMC cells assessed as viral inhibition incubated for 7 days with media replacement for every 3 days by ELISA. The settings on record: Human immunodeficiency virus 1, PBMC. It is filed as functional, organism-based.
For data set [14], the target named is Structural capsid protein (Human immunodeficiency virus 1, UniProt Q76129). Nature of the data set: Inhibition of HIV 1 capsid CTD dimerization incubated for 5 hrs by TR-FRET assay.
Structural capsid protein, sequence (Q76129 whole entry): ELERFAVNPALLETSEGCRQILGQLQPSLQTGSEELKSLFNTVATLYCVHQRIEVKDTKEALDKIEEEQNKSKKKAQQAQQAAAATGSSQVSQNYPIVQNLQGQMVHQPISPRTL
Data set [15] has as its system Human immunodeficiency virus 1. Put plainly: Antiviral activity against HIV 1 infected in HeLa cells transfected with CD4,[…] and LacZ gene assessed as reduction in viral replication measured after 72 hrs by ELISA. It is filed as functional, organism-based. The settings on record: Human immunodeficiency virus 1, HeLa.
Another data set deals with MT4. Put plainly: Cytotoxicity against […] MT4 cells. It is filed as functional. The settings on record: Homo sapiens.
For data set [16], the system named is Human immunodeficiency virus 1. Nature of the data set: Antiviral activity against HIV 1 infected in […] MT4 cells. It is filed as functional, organism-based. Particulars: Human immunodeficiency virus 1, MT4.
Data set [17] has as its system Human immunodeficiency virus 1. Put plainly: Antiviral activity against HIV 1 assessed as log 10 reduction in viral load. It is filed as functional.

pEC50, pIC50: −log10 of the molar value.

In the case of `Cc1[nH]c2ccccc2c1CC(=O)N[C@@H](Cc1ccccc1)C(=O)N(C)c1ccccc1`, the pEC50 in data set [1] was 6.24.
On to `O=C(O)c1ccc(-c2nc(-c3ccccc3)c(-c3ccccc3)[nH]2)cc1`, for which the negative-log IC50 (pIC50) in data set [2] is 4.65.
In the case of `CCc1cc(-c2ccc(C(F)(F)F)o2)n(-c2ccc3c(c2)nc(-c2cc(C(=O)N4CCCC4)ccc2O)n3Cc2ccc(=O)[nH]c2)n1`, in data set [3], the pIC50 is 7.21. In addition, the pEC50 in [4] was 7.21.
With `O=C1NC(c2cccnc2)c2c(-c3ccccc3)n[nH]c21` (stereo not given), the figures for the pEC50 in [5] and in data set [6] were 5.74 and 5.85, respectively.
`O=C(O)c1ccc(-c2ccc3c(c2)nc(-c2c[nH]nc2-c2cccc(Cl)c2)n3CCCn2ccnc2)cc1`: in data set [7], the negative logarithm of the IC50 (pIC50) was 4.24.
Regarding `Cn1nc(NS(C)(=O)=O)c2cccc(-n3c([C@H](Cc4cc(F)cc(F)c4)NC(=O)Cn4nc(C(F)F)c5c4C(F)(F)[C@H]4C[C@@H]54)nc4cc(-c5ncccn5)ccc4c3=O)c21`, in [8], the negative logarithm of the EC50 (pEC50) was 10.60.
In the case of `CC(C)(C#Cc1ccc(-c2ccc(Cl)c3c(NS(=O)(=O)C4CC4)nn(CC(F)(F)F)c23)c([C@H](Cc2cc(F)cc(F)c2)NC(=O)Cn2nc(C(F)(F)F)c3c2C(F)(F)[C@@H]2C[C@H]32)n1)S(C)(=O)=O`, the pEC50 in [9] and in [11] was 9.85 throughout. Also, in [10], the half-life was 7.2 h.
Take `O=C(O)c1ccc(-c2nc(-c3ccc4oc5ccc(-c6nc(-c7ccc(C(=O)O)cc7)[nH]c6-c6ccccc6)cc5c4c3)c(-c3ccccc3)[nH]2)cc1`: in [2], the pIC50 was 4.48.
In [12], `COc1ccc(N(C)C(=O)[C@H](Cc2cc(F)cc(F)c2)NC(=O)c2cccc(-c3cn(-c4ccc([N+](=O)[O-])cc4)nn3)c2)cc1` had a pEC50 of 5.67. The CC50 in the data set on TZM was over 35500 nM.
As for `CCCCC[C@](C)(NC(=O)[C@H](CC(C)C)NC(=O)[C@H](CC(C)C)NC(=O)[C@H](CC(=O)O)NC(=O)[C@](C)(CCCCC)NC(=O)[C@H](Cc1ccccc1)NC(=O)[C@@H](NC(=O)[C@@H](N)[C@@H](C)CC)[C@@H](C)O)C(=O)N[C@@H](Cc1ccc(O)cc1)C(=O)N[C@@H](Cc1ccc(O)cc1)C(=O)NCC(=O)N1CCC[C@H]1C(=O)O`, in data set [13], the pIC50 was 5.40.
In data set [14], `O=c1c2ccccc2[se]n1-c1ccccc1` [EBSELEN] gave a pIC50 of 7.33. Besides, the negative-log EC50 (pEC50) in data set [15] was 5.37.
The compound `CC(C)(C#Cc1ccc(-c2ccc(Cl)c3c(NS(C)(=O)=O)nn(CC(F)(F)F)c23)c([C@H](Cc2cc(F)cc(F)c2)NC(=O)Cn2nc(C(F)(F)F)c3c2C(F)(F)[C@@H]2C[C@H]32)n1)S(C)(=O)=O` [LENACAPAVIR] displayed a 50% cytotoxic concentration (CC50) with MT4 of 27000 nM. This compound also had a negative-log EC50 (pEC50) in data set [16] of 10.00. The “log(activity)” value in [17] was found to be 0.5.
